Type in all cases: cell-based
For one series, the system named is GFP. Put plainly: Western blot of GFP expressed from pEF1-GFP in HeLa cells. To be noted: 48 h. The protocol: Figure 5 Triptolide specifically reduces steady-state level of Tat protein. (A) HeLa cells were transfected with pEF1-FLAG-Tat in the presence of increasing concentrations of triptolide. Cells were harvested 48 h post-transfection, and protein expression levels were determined by Western blotting. (B) HeLa cells were transfected either with pEF1-GFP (left) or pEF1-Tat-GFP (right) in the presence of increasing concentrations of triptolide. Cells were harvested 48 h post-transfection, and protein expression levels were determined by Western blotting.
Cells were washed with phosphate buffered saline (PBS) and lysed with radio immunoprecipitation assay lysis buffer supplemented with complete mini protease inhibitor cocktail (Roche) at 4°C for 1 h. Proteins from cell lysates were separated by SDS-PAGE and transferred to polyvinylidene difluoride membranes. After overnight incubation with primary antibodies at 4°C, each blot was probed with horseradish peroxidase-conjugated secondary antibody. Immunoreactive signals were detected with an enhanced chemiluminescence substrate (Thermo Scientific) using an AlphaEaseH FC Imaging System (Alpha Innotech Corporation).

The test system of series [1] is Tat-induced HIV-1 LTR activation. Put plainly: HIV-1 LTR-luciferase reporter assay, Tat-induced, TZM-bl cells. To be noted: pEF1-Tat transfection, 48 h. The protocol:
(§1) The effect of the test compounds on HIV-1 LTR promoter activity was evaluated using the luciferase reporter systems in both TZM-bl and Jurkat cells. TZM-bl cells seeded in 96-well plates (2 × 10^4 cells/well) were treated with either 10 ng/mL TNF-α (Sigma-Aldrich) or co-transfected with pEF1-Tat and pRL-TK (for transfection efficiency normalization) using Lipofectamine 2000 (Invitrogen). The cells were then cultured in the presence of various concentrations of the test compounds. After 24 h (TNF-α stimulation) or 48 h (Tat transfection) of incubation, luciferase activity was determined from cell lysates using the StedyGlo reagent (for TNF-α treated cells) or a dual luciferase assay system (Promega, for transfected cells) as recommended by the manufacturer.
(Reporter assays use an easily measured gene product as a stand-in for the process of interest.)

A further series relates to HIV-1 LAI. Put plainly: PBMC antiviral assay, p24 ELISA. The conditions noted are these: for EC50: Human immunodeficiency virus 1, PBMC, 144 h, p24, day 6 post-infection; for selectivity ratio at 6 days: human, read-out: SI (selective index, CC50/EC50). For orientation: An ELISA detects its analyte on a solid surface through an enzyme-linked reagent.
Series [2] has as its system basal HIV-1 LTR transcription. Put plainly: Basal LTR transcription activity in TZM-bl and Jurkat cells. The conditions noted are these: tested concentrations (data not shown). The protocol:
as §1
Jurkat cells were seeded in 24-well plates at a density of 2 × 10^5 cells per well. For TNF-α induction, cells were co-transfected with pLTR-Luc and pRL-TK in the presence or absence of the test compounds. Then, the cells were treated with 10 ng/mL TNF-α 36 h post-transfection. After induction for an additional 12 h, luciferase activity was analyzed. For Tat-induced LTR activation, Jurkat cells were co-transfected with pLTR-Luc (or pLTR-Luc-ΔkB), pEF1-Tat and pRL-TK, and cultured in the presence of various concentrations of test compounds for an additional 48 h before the determination of luciferase activity. […]

Where two headings read alike, the source gives them in different places.

For the molecule `CC(C)[C@]12O[C@H]1[C@@H]1O[C@]13[C@]1(O[C@H]1C[C@H]1C4=C(CC[C@@]13C)C(=O)OC4)[C@@H]2O` [triptolide], the “expression level of GFP” value in the series with GFP is listed as “not reduced”. Further, the “effect on Tat-induced reporter activity” value in series [1] is “reduced Tat-induced reporter activity in a dose-dependent fashion”. Besides, the concentration for a half-maximal effect (EC50) (commonly the concentration giving half of the maximal effect) in the series on HIV-1 LAI (PBMC donor A) was determined as 1.5 nM; in the series with HIV-1 LAI (PBMC donor B), 1.2 nM; with HIV-1 LAI (PBMC donor C), 1.5 nM. Further, the selectivity ratio at 6 days in the series with HIV-1 LAI (PBMC donor A) was 8.4; in the series with HIV-1 LAI (PBMC donor B) it was 12.8; with HIV-1 LAI (PBMC donor C), 7.5. Further, in series [2], the “effect on basal LTR transcription activity” value is “did not affect basal LTR transcription activity”.

Source of the values: publication PMC4205289, “Triptolide inhibits human immunodeficiency virus type 1 replication by promoting proteasomal degradation of Tat protein” (Retrovirology, 2014).
